According to patent publication US5486505A, “Polypeptide compounds having growth hormone releasing activity” (Polygen Holding Corporation, priority 1992, dated 1996):

Tested on: growth hormone (GH) release
Test: In vivo GH release in pentobarbital anesthetized rats (serum GH by RIA)
Set-up: species or system immature female Sprague-Dawley rats
Details: Table 4, control GH 181 ± 69
Experimental: Immature female Sprague-Dawley rats were obtained from the Charles River Laboratories (Wilmington, Mass.). After arrival they were housed at 25° C. with a 14:10 hour light:dark cycle. Water and Purina rat chow were available ad libitum. Pups were kept with their mothers until 21 days of age.
Twenty-six day old rats, six rats per treatment group, were anesthetized interperitoneally with 50 mg/Kg of pentobarbital 20 minutes prior to i. v. treatment with peptide. Normal saline with 0.1% gelatin was the vehicle for intravenous (i. v.) injections of the peptides. The anesthetized rats, weighing 55-65 grams, were injected i. v. with the quantity of growth hormone releasing compounds indicated in Tables 3 and 4. Injection was made as a 0.2 mL solution into the jugular vein.
All animals were sacrificed by guillotine 10 minutes after the final test injection (see Tables 3 and 4). Trunk blood for the determination of blood GH levels was collected following decapitation. After allowing the blood to clot, it was centrifuged and the serum was separated from the clot. […]
The mixed reagents are then typically incubated at room temperature (about 25° C.) for about 24 hours prior to addition of a second antibody (e.g., goat or rabbit anti-monkey gamma globulin serum) which binds to and causes precipitation of the complexed growth hormone antiserum. Precipitated contents of the RIA tubes are then analyzed for the number of counts in a specified period of time in a gamma scintillation counter. […] GH levels of unknowns are then determined by reference to the standard curve.
Serum GH was measured by RIA with reagents provided by the National Hormone and Pituitary Program.
Serum levels in Tables 3 and 4 are recorded in ng/mL in terms of the rat GH standard of 0.61 International Units/mg (IU/mg). Data is recorded as the mean +/- standard error of the mean (SEM). […]

Substance: His--DCys(SMe)--Ala--Trp--DPhe--Lys--NH2
- GH Released (total dose 1.0 μg i.v.): 193 ± 28 ng/mL
- GH Released (total dose 3.0 μg i.v.): 180 ± 34 ng/mL
- GH Released (total dose .3 μg i.v.): 178 ± 28 ng/mL
